Results taken from patent US5008273A, “Amino acid derivatives and their pharmaceutical use” (Boehringer Ingelheim GmbH, priority 1985, dated 1991).

Molecular target: angiotensin converting enzyme (Homo sapiens, UniProt P12821)
Assay: inhibition of the isolated angiotensin converting enzyme
Format: biochemical
Excerpt: The following values were obtained for the inhibition of the isolated angiotensin converting enzyme: […]

Sequence of angiotensin converting enzyme (P12821 30-1306, species assumed): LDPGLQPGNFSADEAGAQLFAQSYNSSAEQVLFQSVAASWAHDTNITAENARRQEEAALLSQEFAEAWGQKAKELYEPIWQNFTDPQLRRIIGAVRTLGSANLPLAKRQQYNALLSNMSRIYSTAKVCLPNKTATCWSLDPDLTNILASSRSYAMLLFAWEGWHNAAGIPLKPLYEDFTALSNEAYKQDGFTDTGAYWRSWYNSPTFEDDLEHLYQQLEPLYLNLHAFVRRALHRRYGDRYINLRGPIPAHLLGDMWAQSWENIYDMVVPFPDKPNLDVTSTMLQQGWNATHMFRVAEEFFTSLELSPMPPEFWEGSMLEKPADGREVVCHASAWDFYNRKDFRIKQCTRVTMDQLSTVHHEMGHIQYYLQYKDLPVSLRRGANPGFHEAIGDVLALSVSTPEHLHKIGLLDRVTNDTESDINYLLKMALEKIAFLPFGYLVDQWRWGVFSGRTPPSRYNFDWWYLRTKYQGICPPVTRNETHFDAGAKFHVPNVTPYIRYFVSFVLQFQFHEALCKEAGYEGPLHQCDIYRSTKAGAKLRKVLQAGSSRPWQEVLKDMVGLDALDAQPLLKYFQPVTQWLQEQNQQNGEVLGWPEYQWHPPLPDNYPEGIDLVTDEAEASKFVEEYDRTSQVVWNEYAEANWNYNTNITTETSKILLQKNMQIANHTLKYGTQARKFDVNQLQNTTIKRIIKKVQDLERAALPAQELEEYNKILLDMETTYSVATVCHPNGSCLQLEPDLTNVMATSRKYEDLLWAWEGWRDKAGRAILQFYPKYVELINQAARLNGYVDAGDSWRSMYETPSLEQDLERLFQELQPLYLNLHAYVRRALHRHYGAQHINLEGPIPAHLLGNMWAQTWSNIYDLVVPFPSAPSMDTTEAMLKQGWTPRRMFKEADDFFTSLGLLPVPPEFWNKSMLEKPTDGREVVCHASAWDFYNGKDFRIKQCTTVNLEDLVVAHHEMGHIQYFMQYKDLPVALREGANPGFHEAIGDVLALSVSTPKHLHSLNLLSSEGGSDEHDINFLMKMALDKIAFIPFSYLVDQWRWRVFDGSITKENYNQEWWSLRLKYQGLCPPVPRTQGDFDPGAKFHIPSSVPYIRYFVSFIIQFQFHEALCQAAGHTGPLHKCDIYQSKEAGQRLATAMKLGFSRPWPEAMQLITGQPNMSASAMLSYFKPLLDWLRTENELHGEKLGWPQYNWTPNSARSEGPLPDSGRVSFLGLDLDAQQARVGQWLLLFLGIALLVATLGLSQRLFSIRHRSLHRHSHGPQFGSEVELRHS

Row | Compound | IC50
1 | NCCCC[C@H](N[C@@H](CCc1ccccc1)C(=O)O)C(=O)N1CCc2ccsc2[C@@H]1C(=O)O [Example 4, N-[N-(1(S)-Carboxy-3-phenylpropyl)-L-lysyl]4,5,6,7-tetrahydro-thieno[2,3-c]pyridine-7(S)-carboxylic acid] | 18 nM
2 | NCCCC[C@H](N[C@@H](CCc1ccccc1)C(=O)O)C(=O)N1Cc2ccsc2C[C@H]1C(=O)O [Example 10, N-[N-(1(S)-Carboxy-3-phenylpropyl)-L-lysyl]-4,5,6,7-tetrahydro-thieno[3,2-c]pyridine-6(S)-carboxylic acid] | 2.9 nM
3 | NCCCC[C@H](N[C@@H](CCc1ccccc1)C(=O)O)C(=O)N1CCc2sccc2[C@H]1C(=O)O [Example 2, N-[N-(1(S)-Carboxy-3-phenylpropyl)-L-lysyl]4,5,6,7-tetrahydro-thieno[3,2-c]pyridine-4(S)-carboxylic acid] | 3.5 nM
4 | NCCCC[C@H](N[C@@H](CCc1ccccc1)C(=O)O)C(=O)N1Cc2sccc2C[C@H]1C(=O)O [Example 7, N-[N-(1(S)-Carboxy-3-phenylpropyl)-L-lysyl]-4,5,6,7-tetrahydro-thieno[2,3-c]pyridine-5(S)-carboxylic acid] | 14 nM
